From patent publication US11084879B2, “Compositions and methods for treating pancreatitis and pain with death receptor agonists” (The Johns Hopkins University, priority 2016, dated 2021)
Like-named read-outs stand apart in the source and are kept apart here.

Legend:
activated PSCs = assay: Apoptosis markers in activated PSCs, TRAILPEG versus conventional toxic agents; type: cell-based, human; conditions: 48 hr, DOX 100 nM, CIS 10 μM, H2O2 10 μM
EtOH-activated PSCs = assay: Caspase 3/7 assay in EtOH-activated PSCs; type: cell-based, human; conditions: alcohol-activated PSCs; different concentrations (0-10^3 ng/mL), alcohol still present in culture
Protocol: Caspase 3/7 activities were measured by caspase3/7 assay kit (Promega) according to the manufacturer's protocol. The luminescence of each sample was measured on a plate reader (Bio-Tek Instruments Inc) with parameters of 1 min lag time and 0.5 sec/well read time (n=4).
To investigate TRAIL-induced apoptosis in alcohol-activated PSCs, 2×10^4 cells were cultured for overnight in a 96-well plate and then activated with 50 mM EtOH for 48 h. […] Apoptosis was measured by MTT cell death assay and caspase 3/7 assay as described above.

[1] = rodents; cited from earlier work
[2] = humans; cited from earlier work

With `COc1cccc2c1C(=O)c1c(O)c3c(c(O)c1C2=O)C[C@@](O)(C(=O)CO)C[C@@H]3O[C@H]1C[C@H](N)[C@H](O)[C@H](C)O1` [doxorubicin] as the compound, how does the “killing of activated PSCs by conventional toxic agents” value (“killing of activated PSCs” for short) (activated PSCs) read?
Its value is “difficult to kill”.

For `OO` [hydrogen peroxide], which “killing of activated PSCs” value (activated PSCs) is on record?
Its value is “difficult to kill”.

For `N.N.[Cl][Pt][Cl]` [cisplatin], which “killing of activated PSCs” value (activated PSCs) is on record?
The value was “difficult to kill”.

Which “apoptosis (caspase 3/7 activity, FIG. 9)” value (EtOH-activated PSCs) does the source give for “conatumumab: human anti-DR5 agonistic antibody (Creative Biolabs)” here?
The value was “induced strong apoptosis dose-dependently”.

For “TRAIL: TNF (Tumor Necrosis Factor)-related apoptosis-inducing ligand, protein ligand that induces apoptosis”, which t1/2 [1] is on record?
The t1/2 was “less than 5 min”.

And the t1/2 [2]?
Its t1/2 is < 30 min.
